In PMC7546081, “A Kunitz-type peptide from Dendroaspis polylepis venom as a simultaneous inhibitor of serine and cysteine proteases” (The Journal of Venomous Animals and Toxins Including …, 2020):
Read-outs that look alike come from different tables or passages of the source. Bridge positions count the residues as written; N and C are the ends. Square brackets hold non-standard residues; d marks the D form. Peptide text beside a SMILES is read from it. * marks the point of attachment. EDDnp = O=[N+]([O-])c1ccc(NCCN*)c([N+](=O)[O-])c1; AMC = Cc1cc(=O)oc2cc(N*)ccc12; 2Abz = Nc1ccccc1C(=O)O; Cbz = O=C(OCc1ccccc1)*

Legend:
[1] = target: T1, elastase-1 (Sus scrofa, UniProt P00772); assay: Kinetic characterization of elastase-1 inhibition (Michaelis-Menten, Dixon plot); type: biochemical; details: for Elastase inhibition: data not shown
T1 construct: purchased Sigma-Aldrich
Description: To determine the inhibition constant (Ki ) of the peptide, firstly the Michaelis-Menten constant (Km ) for the Abz-FRSSRQ-EDDnp hydrolysis by elastase-1 was obtained. For this, the concentrations of 2.5 µM, 5.0 µM, 10.0 µM, 15.0 µM, 25.0 µM and 50.0 µM of the substrate were used, in Tris 50 mM, NaCl 50 mM pH 8.0. Initial rates were determined at an enzyme concentration (100 ng) that would hydrolyze less than 10% of the substrate. The kinetic parameters (Km and Vmax ) were calculated by Michaelis-Menten equation using the Grafit 5 software (Erithacus Software, West Sussex, UK), as previously described. All experiments were performed in duplicate.
The Kunitz-type peptide quantification was determined by the BCA method using insulin as standard (5 µg/µL, 10 µg/µL, 25 µg/µL, 50 µg/µL e 100 µg/µL). To determine the mechanism of action of the Kunitz-type inhibitor, two concentrations of Abz-FRSSRQ-EDDnp, 6.8 µM and 3.4 µM, and two concentrations of the purified peptide, 0.63 µM and 0.94 µM, were utilized. For each substrate concentration it was made a control test (absence of the peptide). The assays were performed in duplicate and during all experiment the consumption of substrate was maintained under 10%. The reactions were monitored in the fluorimeter, as described above, and were analyzed in the Grafit 5 software (Erithacus Software, West Sussex, UK). The mechanism and the inhibition constants were determined through the Dixon plot (1/V x [I]) equation [20]. The plot was made in the software GraphPad Prism 5.

[2] = target: T1, elastase-1; assay: Stability test of peptides against hydrolysis by elastase-1 (RP-HPLC); type: in vitro ADME; details: data not shown; for Stability against hydrolysis by elastase-1: peptide 50 mM (so in the source), elastase-1 300 ng, Tris 50 mM, NaCl 50 mM pH 8.0, 37 °C, 4 hours and overnight, C18 RP-HPLC, UV 214 nm, duplicate
Description: Samples containing only the synthetic peptides were used as negative control. After incubation, samples were analyzed, in duplicate by reverse phase chromatography on HPLC, using a Shim-pack C-18 column in the same conditions described above.

[3] = target: T2, recombinant human cathepsin L (Homo sapiens, UniProt P07711); assay: Stability test of peptides against hydrolysis by cathepsin L (RP-HPLC); type: in vitro ADME; details: cathepsin L 10 ng, NaCl 200 mM, EDTA 5 mM, DTT 6.25 mM pH 5.5; 37 °C; 4 hours and overnight (16 hours); C18 RP-HPLC, UV 214 nm; duplicate; data not shown
T2 construct: purchased R&D systems
Description: The synthetic peptides PEP1 and PEP2 (50 mM) were incubated with elastase-1 (300 ng), in Tris 50 mM, NaCl 50 mM pH 8.0 buffer, and cathepsin L (10 ng), in 50 mM, NaCl 200 mM, EDTA 5 mM, DTT 6.25 mM pH 5.5 buffer, at 37 °C in two different time intervals, 4 hours and overnight. Samples containing only the synthetic peptides were used as negative control. After incubation, samples were analyzed, in duplicate by reverse phase chromatography on HPLC, using a Shim-pack C-18 column in the same conditions described above.
Target sequence in this assay (P07711 114-333): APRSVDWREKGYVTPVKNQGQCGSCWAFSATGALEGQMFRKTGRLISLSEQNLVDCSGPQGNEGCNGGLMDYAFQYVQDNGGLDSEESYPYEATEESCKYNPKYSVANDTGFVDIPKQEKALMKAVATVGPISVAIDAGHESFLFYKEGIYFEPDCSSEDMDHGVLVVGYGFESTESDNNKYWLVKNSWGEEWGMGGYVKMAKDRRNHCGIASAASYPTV

[4] = target: T2, recombinant human cathepsin L; assay: Kinetic characterization of cathepsin L inhibition (Michaelis-Menten, Dixon plot); type: biochemical
Description: To obtain the Michaelis-Menten constant (Km ) of the Z-FR-MCA hydrolysis by cathepsin L (1 ng), 1 µM, 2.5 µM, 5.0 µM, 7.5 µM, 12.5 µM, 15 µM, 20 µM concentrations of Z-FR-MCA substrate were tested in 50 mM, NaCl 200 mM, EDTA 5 mM, DTT 6.25 mM pH 5.5 buffer (final volume of 100 µL).The reactions were continuously monitored (fluorescence at λEM 480 nm and λEX 360 nm) in a fluorimeter (425-301 Hidex, Finland), as described. The maximum speed (Vmax ) and the Km were obtained in the Grafit 5 software. All experiments were performed in duplicate. To determine the mechanism of inhibition and the inhibition constant (Ki ) of inhibitor PEP2, two concentrations of the Z-FR-MCA, 5.2 µM (2 Km ) and 7.8 (3 Km ), and three concentrations of the inhibitor PEP2, 1 µM, 2.5 µM and 5 µM, were used. Samples without PEP2 for each substrate concentration were utilized. The experiments were carried out in duplicates and the consumption of the substrate was maintained under 10%. The results were analyzed in the Grafit 5 software. The mechanism and the inhibition constants were determined through the Dixon plot (1/V x [I]) equation [20], using the software GraphPad Prism 5.

[5] = system: potassium channel; details: read-out: Potassium channel blocker activity IC50; cited from earlier work
[6] = system: chymotrypsin; assay: Chymotrypsin inhibition; type: biochemical; details: data not shown
[7] = system: trypsin; assay: Trypsin inhibition; type: biochemical; details: data not shown
[8] = target: T3, pancreatic elastase (EC 3.4.21.36) (UniProt P00772 27-266); assay: enzyme inhibition kinetics (fluorimetric, Dixon plot); elastase-1 (100 ng) with the FRET substrate Abz-FRSSRQ-EDDnp at 3.4 and 6.8 µM, purified peptide at 0.63 and 0.94 µM; Tris 50 mM, NaCl 50 mM, pH 8.0, 37 °C; duplicates; mechanism found uncompetitive; details: both partners purified
T3 construct: also called elastase-1; source: bought: Sigma-Aldrich
T3 sequence (P00772 27-266): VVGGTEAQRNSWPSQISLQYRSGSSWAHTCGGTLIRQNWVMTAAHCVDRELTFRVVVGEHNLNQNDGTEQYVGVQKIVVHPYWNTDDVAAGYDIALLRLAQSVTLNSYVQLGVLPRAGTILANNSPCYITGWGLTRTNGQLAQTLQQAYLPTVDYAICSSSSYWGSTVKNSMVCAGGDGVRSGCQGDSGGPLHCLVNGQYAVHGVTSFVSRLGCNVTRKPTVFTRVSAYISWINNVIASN

T1 sequence (P00772 27-266): as above

N=C(N)NCCC[C@H](NC(=O)[C@H](Cc1ccccc1)NC(=O)c1ccccc1N)C(=O)N[C@@H](CO)C(=O)N[C@@H](CO)C(=O)N[C@@H](CCCNC(=N)N)C(=O)N[C@@H](CCC(N)=O)C(=O)NCCNc1ccc([N+](=O)[O-])cc1[N+](=O)[O-] [Abz-FRSSRQ-EDDnp, reference compound] (H-[2Abz]FRSSRQ-EDDnp)
Km ([1]; Michaelis-Menten fit, Std. Error 2.2721 in its own column, read-out: Km, fit parameter value (Additional file 4A), elastase-1): 10.6 µM
Km ([1]; substrate 2.5-50.0 µM, elastase-1 100 ng, Tris 50 mM, NaCl 50 mM pH 8.0, Grafit 5, duplicate, read-out: Michaelis-Menten constant (Km) of substrate cleavage by elastase-1): 10.7 µM

C[C@@H](O)[C@H](NC(=O)[C@H](Cc1ccccc1)NC(=O)CNC(=O)[C@H](CCC(=O)O)NC(=O)[C@H](CS)NC(=O)[C@H](CCC(N)=O)NC(=O)[C@H](CCCCN)NC(=O)[C@@H](N)CCCCN)C(=O)N[C@@H](Cc1c[nH]c2ccccc12)C(=O)N[C@@H](CO)C(=O)NCC(=O)N[C@@H](CS)C(=O)NCC(=O)NCC(=O)N[C@@H](CC(N)=O)C(=O)N[C@@H](CO)C(=O)O [PEP1] (H-KKQCEGFTWSGCGGNS-OH)
Stability against hydrolysis by elastase-1 [2]: not stable
Stability against hydrolysis by cathepsin L [3]: hydrolyzed

CC[C@H](C)[C@@H]1NC(=O)[C@H](CCCCN)NC(=O)[C@H](CCC(N)=O)NC(=O)[C@H](Cc2ccc(O)cc2)NC(=O)[C@@H](NC(=O)[C@H](CCCNC(=N)N)NC(=O)CNC(=O)[C@@H]2CCCN2)CSSC[C@@H](C(=O)NCC(=O)NCC(=O)O)NC(=O)CNC(=O)[C@H](CO)NC(=O)[C@H](Cc2c[nH]c3ccccc23)NC(=O)[C@H]([C@@H](C)O)NC(=O)[C@H](Cc2ccccc2)NC(=O)CNC(=O)[C@H](CCC(=O)O)NC(=O)[C@H](C(C)C)NC(=O)[C@H](CCC(N)=O)NC(=O)[C@H](CCCCN)NC(=O)[C@H](CCCCN)NC(=O)[C@H](CCCCN)NC(=O)[C@H](CCC(N)=O)NC(=O)[C@H](CC(N)=O)NC(=O)[C@H](Cc2ccc(O)cc2)NC(=O)[C@H](Cc2ccc(O)cc2)NC(=O)[C@H](Cc2ccccc2)NC(=O)[C@H](C)NC(=O)[C@@H]2CCCN2C1=O [PEP2] (H-PGRCYQKIPAFYYNQKKKQVEGFTWSGCGG-OH; disulfide 4-28)
Stability against hydrolysis by elastase-1 [2]: not stable
Ki ([4]; Dixon plot, Z-FR-MCA 5.2 and 7.8 µM (2 and 3 Km), PEP2 0, 1.0, 2.5 and 5.0 µM, cathepsin L 1 ng, pH 5.5 buffer with DTT 6.25 mM, duplicate, read-out: Inhibition constant (Ki) for cathepsin L): 1.96 µM
Stability against hydrolysis by cathepsin L [3]: not degraded

Cbz-Phe-Arg-{AMC}
Km ([4]; Michaelis-Menten fit, Std. Error 0.4867 in its own column, read-out: Km, fit parameter value (Additional file 4B), cathepsin L): 2.65 µM
Km ([4]; substrate 1-20 µM, cathepsin L 1 ng, pH 5.5 buffer, Grafit 5, duplicate, read-out: Michaelis-Menten constant (Km) of substrate hydrolysis by cathepsin L): 2.65 µM

Kunitz-type serine protease inhibitor homolog dendrotoxin I (QPLRKLCILHRNPGRCYQKIPAFYYNQKKKQCEGFTWSGCGGNSNRFKTIEECRRTCIRK) [Kunitz-type peptide]
Stability on incubation with elastase-1 (substrate or not) ([2]; overnight incubation with elastase-1): not an elastase-1 substrate
Mechanism of inhibition of elastase-1 ([1]; Dixon plot (1/V versus [I]), parallel lines): uncompetitive inhibitor
Elastase inhibition ([1]; peptide 1.26 µM): above 70%
Elastase inhibition ([1]; peptide 3.52 µM): above 70%
IC50 [5]: 0.00013 to 0.05 µM
Inhibition of chymotrypsin [6]: no other serine protease inhibitions
Inhibition of trypsin [7]: no other serine protease inhibitions

B1: Kunitz-type serine protease inhibitor homolog dendrotoxin I (peptide)
chain: QPLRKLCILHRNPGRCYQKIPAFYYNQKKKQCEGFTWSGCGGNSNRFKTIEECRRTCIRK
notes: also called Kunitz-type peptide; Kunitz peptide
Ki [8]: 8 µM
